According to patent US7696245B2, “Fluorescent probe for zinc” (Sekisui Medical Co., Ltd., priority 2003, dated 2010):
pKd: −log10 of the molar value.

How the values were obtained:
[1] = Rate constant of complex formation with zinc ions (stopped-flow); assay type: physicochemical; details: 1 μM compound, 50 μM zinc ions, 100 mM HEPES buffer (pH 7.4), 25° C.
Experimental: The rate constant of the formation of a complex between zinc ions and each of Compounds 8, 13, 17, and 22 were investigated. Changes with time of fluorescence intensity were measured in a stopped-flow manner after the compound was mixed in 100 mM HEPES buffer (pH 7.4) at 25° C. to adjust the final concentration of the compound to 1 μM and that of zinc ions to 50 μM. The rate constant of complex formation was calculated by using the graph to give 1.6×10^6 M^−1s^−1 for Compound 8, 1.4×10^6 M^−1s^−1 for Compound 13, 7.8×10^4 M^−1s^−1 for Compound 17, and 1.3×10^6 M^−1s^−1 for Compound 22. […] Therefore, it is understood that zinc ions can be detected in a very short period of time, and rapid changes in the concentration of zinc ions can also be detected by using these compounds.

[2] = tested on: CHO cells; test: Fluorescence intensity when zinc ions were intracellularly introduced into CHO cells; assay type: cell-based
Experimental: Changes in fluorescence intensity were investigated when zinc ions in various concentrations were intracellularly introduced by using CHO cells. […] After the cells were washed with PBS(−) 3 times, the reagent was added as shown in the following Table 1, and changes in fluorescence intensity were measured.

[3] = read-out: Kd value for zinc ions; cited from earlier work

SMILES | rate constant of complex formation [1] [M⁻¹ s⁻¹] | further results
O=C(O)c1ccc(NCCNCc2ccccn2)cc1-c1c2ccc(=O)cc-2oc2cc(O)ccc12 [Compound 8] | 1.6e+06 | 
O=C(O)c1ccc(NCCN(CCc2ccccn2)Cc2ccccn2)cc1-c1c2ccc(=O)cc-2oc2cc(O)ccc12 [Compound 13] | 1.4e+06 | 
O=C(O)c1ccc(NCCN(CCc2ccccn2)CCc2ccccn2)cc1-c1c2ccc(=O)cc-2oc2cc(O)ccc12 [Compound 17] | 78000 | 
Cc1cccc(CN(CCNc2ccc(C(=O)O)c(-c3c4ccc(=O)cc-4oc4cc(O)ccc34)c2)Cc2ccccn2)n1 [Compound 22] | 1.3e+06 | 
CC(=O)Oc1ccc2c(c1)Oc1cc(OC(C)=O)ccc1C21OC(=O)c2ccc(NCCN(CCc3ccccn3)Cc3ccccn3)cc21 [Compound 28] |  | change of fluorescence intensity of dyed cells with elevation of zinc ions introduced ([2]; CHO cells, 100 μM pyrithione, 0.3-300 μM ZnSO4): increased stepwise
CC(=O)Oc1ccc2c(c1)Oc1cc(OC(C)=O)ccc1C21OC(=O)c2ccc(NCCN(Cc3ccccn3)Cc3ccccn3)cc21 [ZnAF-2DA, reference compound] |  | pKd [3]: 8.57; zinc ion concentration at which fluorescence intensity reached the plateau ([2]; CHO cells dyed with 10 μM probe, 100 μM pyrithione plus ZnSO4): 3 µM
